Two molecules from patent US11242327B2, “Analgesic compounds” (RECURIUM IP HOLDINGS, LLC, priority 2017, dated 2022) can be followed below.

The target of one series is Opiate δ2 (Homo sapiens, UniProt P41143). Kind of series: NSAIDS and Opioid Receptor Test: Opiate δ2. The following applies: 200 μM. It counts as binding. As for the experimental part: (§1) Compounds were screened as DMSO solutions at 10 μM, 100 μM, or 200 μM and values represent percent inhibition of control-specific binding. […] As NSAID and opioid mechanisms of action are precluded, a person of ordinary skill in the art understands that undesirable side effects associated with inhibition of COX receptors in NSAIDs and activation of opiate receptors in opioids can be avoided by compounds described herein. Furthermore, opioids are known to lose their analgesic potency after to continued administration. (See Benyamin, et al. “Opioid Complications and Side Effects” Pain Physician 11 (2008): S105-S120). As the data indicates compounds described herein have a different mechanism action compared to opioids, a person of ordinary skill in the art would appreciate that compounds described herein would not be expected to lose their analgesic potency like opioids after continued admininistration.
Sequence of Opiate δ2 (P41143 whole entry): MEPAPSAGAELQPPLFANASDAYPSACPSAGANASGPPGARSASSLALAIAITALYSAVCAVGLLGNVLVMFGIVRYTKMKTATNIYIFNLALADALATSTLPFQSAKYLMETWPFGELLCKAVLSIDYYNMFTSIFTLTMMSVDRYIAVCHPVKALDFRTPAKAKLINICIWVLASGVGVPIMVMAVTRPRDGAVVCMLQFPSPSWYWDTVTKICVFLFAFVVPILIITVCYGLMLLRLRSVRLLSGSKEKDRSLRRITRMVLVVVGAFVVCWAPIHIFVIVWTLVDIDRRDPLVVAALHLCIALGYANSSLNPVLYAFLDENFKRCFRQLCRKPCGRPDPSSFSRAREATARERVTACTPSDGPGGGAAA

Another series has as its target T1, COX-2 (Homo sapiens, UniProt P35354).
T1 sequence (P35354 18-604): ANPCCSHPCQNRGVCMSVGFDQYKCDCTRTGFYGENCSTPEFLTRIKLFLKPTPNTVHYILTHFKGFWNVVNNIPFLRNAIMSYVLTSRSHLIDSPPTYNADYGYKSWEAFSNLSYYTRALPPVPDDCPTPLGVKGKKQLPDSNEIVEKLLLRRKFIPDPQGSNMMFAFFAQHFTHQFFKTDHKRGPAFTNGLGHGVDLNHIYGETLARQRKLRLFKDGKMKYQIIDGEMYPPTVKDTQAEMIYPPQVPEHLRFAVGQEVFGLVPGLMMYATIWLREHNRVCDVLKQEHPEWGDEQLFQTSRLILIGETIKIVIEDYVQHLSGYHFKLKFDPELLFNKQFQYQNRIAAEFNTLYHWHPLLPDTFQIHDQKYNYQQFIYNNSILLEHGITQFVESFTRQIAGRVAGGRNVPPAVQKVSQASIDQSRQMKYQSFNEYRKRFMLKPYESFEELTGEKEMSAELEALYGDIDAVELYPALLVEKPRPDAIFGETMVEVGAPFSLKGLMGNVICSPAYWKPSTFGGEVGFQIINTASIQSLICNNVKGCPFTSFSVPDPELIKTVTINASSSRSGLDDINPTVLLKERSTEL
Kind of series: NSAIDS and Opioid Receptor Test: COX-2. It counts as biochemical. As for the experimental part: as §1

Series [1] is described as follows: Bioavailability Test (rat pharmacokinetics). It counts as in vivo. As for the experimental part: Oral bioavailability of compounds of Formulae (Ie), (Ih), (Ik), and (Ir), or a pharmaceutically acceptable salt of any of the foregoing, were evaluated in fasted male Sprague-Dawley (SD) rats weighing 200-225g. Compounds were dosed at 3 mg/kg (IV) and 30 mg/kg (PO). Unless otherwise noted, compounds were dissolved in 0.9% saline for IV dosing and 100% sterile water for PO dosing. Pharmacokinetic parameters were determined using Phoenix WinNonlin (v7.0). […]

The target in another series is Opiate μ (Homo sapiens, UniProt P35372). Kind of series: NSAIDS and Opioid Receptor Test: Opiate μ. Type of series: binding. As for the experimental part: as §1
Sequence of Opiate μ (P35372 whole entry): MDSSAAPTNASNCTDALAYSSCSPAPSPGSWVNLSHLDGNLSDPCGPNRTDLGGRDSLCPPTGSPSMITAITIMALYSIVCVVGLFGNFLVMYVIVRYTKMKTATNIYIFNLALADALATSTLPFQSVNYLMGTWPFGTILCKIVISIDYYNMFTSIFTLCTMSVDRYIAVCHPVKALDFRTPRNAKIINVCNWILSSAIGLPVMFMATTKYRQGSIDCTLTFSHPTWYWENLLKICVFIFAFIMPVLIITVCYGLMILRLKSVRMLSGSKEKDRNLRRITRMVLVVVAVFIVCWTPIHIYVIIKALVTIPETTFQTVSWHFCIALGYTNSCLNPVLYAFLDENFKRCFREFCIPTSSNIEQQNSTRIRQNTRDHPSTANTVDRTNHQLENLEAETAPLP
Series [2] concerns male Sprague-Dawley rats. Kind of series: Formalin Paw Test, rat, oral. It counts as in vivo. The following applies: 30 mg/kg. As for the experimental part:
One test compound or the vehicle was administered to each rat or mouse in each test group (8 rats or mice per group). Non-fasted male Sprague-Dawley rats weighing 200-225 g or non-fasted male ICR mice weighing 23±3 g were used. […] Responses were measured every 5 minutes after the formalin injection for 35 minutes. The results in Table 2 are for oral administration in rat and the results in Table 3 are for intraperitoneal administration in mouse. In Tables 2 and 3, 'A' designates <70 seconds of paw licking, 'B' designates >70 and <165 seconds of paw licking, and 'C' designates >165 seconds of paw licking.

A further series deals with COX-1 (Homo sapiens, UniProt P23219). Briefly: NSAIDS and Opioid Receptor Test: COX-1. It counts as biochemical. As for the experimental part: as §1
Sequence of COX-1 (P23219 24-599): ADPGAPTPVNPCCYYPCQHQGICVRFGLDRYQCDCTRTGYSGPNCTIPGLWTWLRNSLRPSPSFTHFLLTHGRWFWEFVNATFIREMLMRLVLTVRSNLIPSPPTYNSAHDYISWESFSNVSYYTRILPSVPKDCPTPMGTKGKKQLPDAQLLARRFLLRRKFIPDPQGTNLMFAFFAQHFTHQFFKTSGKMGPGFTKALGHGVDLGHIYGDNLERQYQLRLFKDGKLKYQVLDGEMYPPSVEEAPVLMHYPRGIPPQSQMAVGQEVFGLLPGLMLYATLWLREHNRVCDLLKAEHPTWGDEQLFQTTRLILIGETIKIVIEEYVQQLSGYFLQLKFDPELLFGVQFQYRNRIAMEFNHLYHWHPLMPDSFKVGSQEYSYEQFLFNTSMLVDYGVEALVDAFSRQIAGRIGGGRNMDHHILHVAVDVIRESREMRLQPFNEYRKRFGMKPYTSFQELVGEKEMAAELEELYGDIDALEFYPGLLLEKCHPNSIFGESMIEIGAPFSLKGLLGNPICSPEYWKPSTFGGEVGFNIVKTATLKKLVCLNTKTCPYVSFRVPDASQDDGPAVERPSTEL
A further series addresses Opiate κ (Homo sapiens, UniProt P41145). Kind of series: NSAIDS and Opioid Receptor Test: Opiate κ. It counts as binding. As for the experimental part:
as §1

Series [3] concerns male Sprague-Dawley rats. Briefly: UVB Inflammatory Pain Test (thermal hyperalgesia). It counts as in vivo. The following applies: rat, oral, 300 mg/kg. The procedure:
UVB irradiation to the surface of the hind paw was used to induce cutaneous inflammatory pain in non-fasted male Sprague-Dawley rats weighing 175-300 g. On Day −3, animals were restrained and the plantar surface of the left hind paw was exposed to 350 mJoules/cm^2 of UVB irradiation using a narrow band UVB light source (Daavlin®, Bryan, Ohio). Following UVB irradiation, animals were returned to their home cage. Thermal hyperalgesia was assessed prior to dosing and approximately 1, 2, and 4 hours after dosing on Day 0 using a radiant heat plantar test apparatus (IITC Life Sciences©; Woodland Hills, Calif.). Animals were placed in individual acrylic chambers on a glass platform warmed to 30±2° C. and allowed to acclimate to their surroundings for a minimum of 15 minutes before testing. The stimulus was presented to the plantar surface and the timer was activated. The stimulus intensity was set such that pre-injury paw withdrawal latencies were approximately 12-18 seconds. Paw withdrawal latency values were recorded at the first observed nocifensive behavior (paw withdrawal, flinching, biting and/or licking). Three paw withdrawal latencies were measured for each hind paw per time point. The mean of the 3 values was taken as the paw withdrawal latency for that time point. A maximum cutoff latency of 30 seconds was used to prevent injury to the animal. The mean and standard error of the mean (SEM) were determined for each paw for each treatment group at each time point. Test compounds were administered orally at concentrations of 3, 10, 30 or 100 mg/kg; celecoxib was administered orally at a concentration of 30 mg/kg; and acetaminophen was administered orally at a concentration of 300 mg/kg. The control group received the vehicle (sterile water). In Table 4, ‘A’ designates >8 seconds of paw withdrawal latency, ‘B’ designates >6 and <8 seconds of paw withdrawal latency, and ‘C’ designates <6 seconds of paw withdrawal latency.
The results provided in Table 4 are for oral administration in rats. […] Furthermore, while acetaminophen was dosed at 300 mg/kg, compounds of Formulae (Ie), (Ih) and (Ik), or a pharmaceutically acceptable salt of any of the foregoing, were dosed at 3 mg/kg, 10 mg/kg and 100 mg/kg.

In a further series the test system is adult male C57BL/6 mice. Briefly: Conditioned Place Preference (Abuse) Test. The following applies: mouse, in vivo, ip. It counts as in vivo, mouse. The source says:
A conditioned place preference (CPP) model was used to assess the reward properties of compounds of formulae (Ie), or a pharmaceutically acceptable salt of any of the foregoing, in adult male C57BL/6 mice. The CPP model apparatus consisted of a Plexiglas© test unit having three (A, B, C) compartments (9 cm×9 cm×16 cm) configured to allow access to all chambers. Compartments A and C had textually distinct flooring and wall marking. Mice were placed in the middle compartment with free access to the other compartments. On day 1 and 2, the “naive chamber preference” was assessed by placing the animal in the middle chamber twice a day (AM and PM) for 30 min on two consecutive days, with the chamber showing the greatest residence time being called the “preferred chamber”. On “drug pairing days” (days 5, 6, 7 and 8) mice were injected IP with vehicle (50 mM citric acid) in the AM in the preferred chamber and the drug/vehicle in the afternoon in the non-preferred chamber for four consecutive days. On the morning of day 9 (the day after the last drug pairing), the “drug chamber preference” was assessed by placing the mouse (absent any injection) in the middle chamber, with free access to all chambers for 30 minutes. This was repeated five days later (day fourteen), with no intervening drug treatment.
The time spent on days 9 and 14 (e.g. […] respectively after the last drug treatment) in the drug associated chamber was the test datum and is represented in FIG. 1. […] In contrast, there was no increase in the non-preferred chamber residence time when the least-preferred chamber was paired with saline, APAP or test compounds 2 or 28 on either days 9 or 14, or days 0 or 5.

In another series the target is Opiate δ1 (Homo sapiens, UniProt P41143). Briefly: NSAIDS and Opioid Receptor Test: Opiate δ1. Type of series: binding. The procedure:
as §1

[4] abbreviates: male, Sprague-Dawley, in vivo, IV 3 mg/kg, 0.9% saline.
Setting [5] is: male, Sprague-Dawley, in vivo, PO 30 mg/kg, sterile water.

Sequence of Opiate κ (P41145 whole entry): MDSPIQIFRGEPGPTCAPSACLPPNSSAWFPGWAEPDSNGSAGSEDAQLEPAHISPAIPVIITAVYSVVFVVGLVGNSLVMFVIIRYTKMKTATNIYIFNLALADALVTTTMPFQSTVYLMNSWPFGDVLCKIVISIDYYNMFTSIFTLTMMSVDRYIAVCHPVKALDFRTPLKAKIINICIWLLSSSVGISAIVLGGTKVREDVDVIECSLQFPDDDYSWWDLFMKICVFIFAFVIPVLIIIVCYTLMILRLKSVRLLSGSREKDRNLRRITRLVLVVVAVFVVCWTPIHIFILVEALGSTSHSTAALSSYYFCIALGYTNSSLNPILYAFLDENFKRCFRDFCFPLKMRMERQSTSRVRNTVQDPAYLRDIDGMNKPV
Sequence of Opiate δ1 (P41143 whole entry): as the sequence (P41143 whole entry) above

One may read the inhibition as the change of the read-out against control, counted positive when it falls. As a reminder, the AUC(0-inf) is total exposure, with the tail of the curve extrapolated. As a reminder, the clearance is the volume of plasma or blood freed of the substance per unit of time. Low readings indicate inefficient removal, high ones efficient removal. As a reminder, the half-life is the time needed for the level to fall by half in the phase considered. Low readings indicate rapid decline, high ones slow decline. As a reminder, the Cmax is the peak of the concentration-time curve. The term Tmax denotes the time at which the peak concentration occurs. For `Cl.NC12CC(c3cccc(C(F)(F)F)n3)(C1)C2` [Compound 13, 3-(6-(Trifluoromethyl)pyridin-2-yl)bicyclo[1.1.1]pentan-1-amine hydrochloride], the inhibition at 200 µM against Opiate δ2 stood at 6%; on COX-2 (200 μM), 8%; against Opiate μ (200 μM), 56%; against COX-1 (200 μM), 6%; against Opiate κ (200 μM) it was 33%. Besides, the F in series [1] (PO 30 mg/kg vs IV 3 mg/kg) was 16%. Moreover, the AUC(0-inf) in [1] (setting [4]) was found to be 3 µM·h; in [1] (setting [5]), 35 µM·h. In addition, the clearance in series [1] (setting [4]) came out at 73 mL/min/kg. In addition, the results for the half-life in series [1] (setting [4]) and in series [1] (setting [5]) were 9.5 h and 6.8 h, respectively. Also, the Vd in series [1] (male, Sprague-Dawley, in vivo, IV 3 mg/kg, 0.9% saline, read-out: Vdss) came out at 20.2 L/kg. In series [1] (setting [5]), this molecule came in with a Cmax of 11 µM. The time to peak (Tmax) in series [1] (setting [5]) was found to be 0.6 h. Moreover, the “Early Phase, seconds of paw licking” value in the series with male Sprague-Dawley rats [2] (early/acute phase (0-10 minutes)) is listed as “A (<70 seconds of paw licking)”. Further, in the series with male Sprague-Dawley rats [2] (late/tonic phase (10-35 minutes)), the “Late Phase, seconds of paw licking” value is on record as “A (<70 seconds of paw licking)”.
Consider `CC(=O)Nc1ccc(O)cc1` [Acetaminophen, reference compound], for which the “paw withdrawal latency, 1 h” value in the series on male Sprague-Dawley rats [3] (1 h after dosing) is recorded as “A (>8 seconds of paw withdrawal latency)”. In addition, in the series on male Sprague-Dawley rats [3] (2 h after dosing), the “paw withdrawal latency, 2 h” value is “A (>8 seconds of paw withdrawal latency)”. Moreover, the “paw withdrawal latency, 4 h” value in the series with male Sprague-Dawley rats [3] (4 h after dosing) is listed as “A (>8 seconds of paw withdrawal latency)”. The inhibition at 10 µM on COX-2 (read-out: % Inhibition, COX-2 (human)) is 3%; at Opiate μ (10 μM), -5%; on COX-1 (read-out: % Inhibition, COX-1 (human)), -7%; against Opiate δ1 it was 2%; against Opiate κ (10 μM) it was -1%. For the same molecule, in the series with adult male C57BL/6 mice, the “least preferred (drug associated) chamber residence time” value was “no increase”.
